Columns and labels:
rat TAAR1 = rat TAAR1 (Rattus norvegicus (Rat), UniProt Q923Y9); assay: Radioligand binding assay on rat TAAR1; conditions: for Ki: rat TAAR1, HEK-293 membranes, second value of the mouse/rat pair
Procedure: (§1) Construction of TAAR Expression Plasmids and Stably Transfected Cell Lines
(§2) For the construction of expression plasmids the coding sequences of human, rat and mouse TAAR 1 were amplified from genomic DNA essentially as described by Lindemann et al.. The Expand High Fidelity PCR System (Roche Diagnostics) was used with 1.5 mM Mg^2+ and purified PCR products were cloned into pCR2.1-TOPO cloning vector (Invitrogen) following the instructions of the manufacturer. PCR products were subcloned into the pIRESneo2 vector (BD Clontech, Palo Alto, Calif.), and expression vectors were sequence verified before introduction in cell lines.
(§3) HEK293 cells (ATCC #CRL-1573) were cultured essentially as described by Lindemann et al. (2005). For the generation of stably transfected cell lines HEK293 cells were transfected with the pIRESneo2 expression plasmids containing the TAAR coding sequences (described above) with Lipofectamine 2000 (Invitrogen) according to the instructions of the manufacturer, and 24 hrs post transfection the culture medium was supplemented with 1 mg/ml G418 (Sigma, Buchs, Switzerland). After a culture period of about 10 d clones were isolated, expanded and tested for responsiveness to trace amines (all compounds purchased from Sigma) with the cAMP Biotrak Enzyme immunoassay (EIA) System (Amersham) following the non-acetylation EIA procedure provided by the manufacturer.
Radioligand Binding Assay on Rat TAAR1
(§4) Membrane Preparation and Radioligand Binding.
HEK-293 cells stably expressing rat TAAR1 were maintained at 37° C. and 5% CO2 in DMEM high glucose medium, containing fetal calf serum (10%, heat inactivated for 30 min at 56° C.), penicillin/streptomycin (1%), and 375 μg/ml geneticin (Gibco). Cells were released from culture flasks using trypsin/EDTA, harvested, washed twice with ice-cold PBS (without Ca^2+ and Mg^2+), pelleted at 1,000 rpm for 5 min at 4° C., frozen and stored at −80° C. Frozen pellets were suspended in 20 ml HEPES-NaOH (20 mM, pH 7.4) containing 10 mM EDTA and homogenized with a Polytron (PT 6000, Kinematica) at 14,000 rpm for 20 s. The homogenate was centrifuged at 48,000×g for 30 min at 4° C. Subsequently, the supernatant was removed and discarded, and the pellet resuspended in 20 ml HEPES-NaOH (20 mM, pH 7.4) containing 0.1 mM EDTA using the Polytron (20 s at 14,000 rpm). This procedure was repeated and the final pellet resuspended in HEPES-NaOH containing 0.1 mM EDTA and homogenized using the Polytron. […] With each new membrane batch the dissociation constant (Kd) was determined via a saturation curve. […] After addition of 45 μl of Microscint 40 (PerkinElmer) the Unifilter-96 plate was sealed and after 1 hr the ratioactivity counted using a TopCount Microplate Scintillation Counter (Packard Instrument Company).

mouse TAAR1 = mouse TAAR1 (Mus musculus (Mouse), UniProt Q923Y8); assay: Radioligand binding assay on mouse TAAR1; conditions: for Ki: mouse TAAR1, HEK-293 membranes, first value of the mouse/rat pair
Procedure: as §1, §2, §3
Radioligand Binding Assay on Mouse TAAR1
as §4
HEK-293 cells stably expressing mouse TAAR1 were maintained at 37° C. and 5% CO2 in DMEM high glucose medium, containing fetal calf serum (10%, heat inactivated for 30 min at 56° C.), penicillin/streptomycin (1%), and 375 μg/ml geneticin (Gibco). […] With each new membrane batch the dissociation constant (Kd) was determined via a saturation curve. […] After addition of 45 μl of Microscint 40 (PerkinElmer) the Unifilter-96 plate was sealed and after 1 hr the ratioactivity counted using a TopCount Microplate Scintillation Counter (Packard Instrument Company).

rat TAAR1, sequence (Q923Y9 whole entry): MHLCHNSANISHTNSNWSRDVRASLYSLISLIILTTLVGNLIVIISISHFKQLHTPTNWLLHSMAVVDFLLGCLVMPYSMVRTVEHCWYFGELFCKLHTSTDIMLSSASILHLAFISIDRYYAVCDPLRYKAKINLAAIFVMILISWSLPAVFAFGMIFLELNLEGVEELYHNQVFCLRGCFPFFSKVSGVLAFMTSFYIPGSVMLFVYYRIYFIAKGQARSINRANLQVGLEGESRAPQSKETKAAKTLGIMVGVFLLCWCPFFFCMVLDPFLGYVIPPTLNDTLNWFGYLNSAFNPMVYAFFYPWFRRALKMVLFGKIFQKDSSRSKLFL
mouse TAAR1, sequence (Q923Y8 whole entry): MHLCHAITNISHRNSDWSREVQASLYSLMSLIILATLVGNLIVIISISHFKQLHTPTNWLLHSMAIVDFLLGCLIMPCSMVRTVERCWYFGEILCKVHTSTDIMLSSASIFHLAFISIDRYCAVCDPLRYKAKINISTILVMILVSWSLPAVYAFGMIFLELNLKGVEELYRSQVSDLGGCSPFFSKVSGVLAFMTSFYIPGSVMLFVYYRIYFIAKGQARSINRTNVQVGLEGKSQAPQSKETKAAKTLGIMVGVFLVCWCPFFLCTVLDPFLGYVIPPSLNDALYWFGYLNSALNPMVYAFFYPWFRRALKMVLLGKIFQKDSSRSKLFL

| Ki (rat TAAR1) [µM] | Kd (rat TAAR1; rat TAAR1 membranes, saturation curve, read-out: dissociation constant (Kd) of the radioligand) [nM] | Kd (mouse TAAR1; mouse TAAR1 membranes, saturation curve, read-out: dissociation constant (Kd) of the radioligand) [nM] | SMILES | Ki (mouse TAAR1) [µM] |
| --- | --- | --- | --- | --- |
| 0.522 | – | – | CC1(c2ccc(NC(=O)c3ccc(Cl)cc3)cc2)CCN(Cc2ccccc2)C1 (racemic) [Example 40, (RS)—N-[4-(1-Benzyl-3-methyl-pyrrolidin-3-yl)-phenyl]-4-chloro-benzamide] | – |
| – | ~2.3 | ~0.7 | CCN(C[C@H]1COC(N)=N1)c1ccccc1 [^3[H]—(S)-4-[(ethyl-phenyl-amino)-methyl]-4,5-dihydro-oxazol-2-ylamine, reference compound] | – |
| 0.0219 | – | – | CC(CC(F)(F)F)OC(=O)Nc1ccc(C2CCNC2)cc1 (racemic) [Example 131, (RS)-(4-Pyrrolidin-3-yl-phenyl)-carbamic acid (RS)-3,3,3-trifluoro-1-methyl-propyl ester] | 0.0208 |

| SMILES | Ki (rat TAAR1) [µM] | Kd (rat TAAR1; rat TAAR1 membranes, saturation curve, read-out: dissociation constant (Kd) of the radioligand) [nM] | Kd (mouse TAAR1; mouse TAAR1 membranes, saturation curve, read-out: dissociation constant (Kd) of the radioligand) [nM] | Ki (mouse TAAR1) [µM] |
| --- | --- | --- | --- | --- |
| O=C(Nc1cccc(OC2CCNC2)c1)c1ccc(Cl)cc1 (racemic) [Example 70, (RS)-4-Chloro-N-[3-(pyrrolidin-3-yloxy)-phenyl]-benzamide] | 0.0935 | – | – | 0.0097 |

— patent US10501411B2, “Substituted benzamides” (Hoffmann-La Roche Inc., priority 2009, dated 2019)
